Data on five molecules can be found in patent US5750139A (priority 1994, dated 1998).

Series [1] relates to rat skin versus human skin. To be noted: cited from earlier work.
The conditions of series [2]: cited from earlier work.
Series [3] is described as follows: GCP-complying pharmacokinetic study of TDS with 14 healthy volunteers. Format: in vivo, human.
Series [4] can be described thus: intra-individual pharmacokinetics, TDS versus oral tablet, one healthy volunteer. Format: in vivo, human. The procedure: For better comparability, some pharmacokinetic preliminary experiments were carried out on one and the same healthy volunteer (i.e. intra-individually).
The nature of series [5]: diffusion/dialysis of benzopyrone from formulation through cellulose membrane (layer thickness, pore size, viscosity). Format: physicochemical. The text has this:
When the same formulation was used, for example, the diffusion rate increased only by a factor of 1.6 when the pore volume was increased from 20 kD to 100 kD.

The nature of series [6]: kinetics of active ingredient diffusion through the membrane in vitro. Format: physicochemical. The procedure:
The TDS to be tested were preselected by means of in vitro measurements of the dialysis of benzopyrone from the TDS investigated. For this purpose, the TDS available was stuck, on the side facing the skin, i.e. the membrane side, by means of the adhesive layer, in a dialysis apparatus and was dialyzed against an excess of a solution of polyethylene glycol 400 or against an albumin or saline solution for at least 24 h. […] The half-lives for a 50% and 95% diffusion yield (t/2 50% and t/2 95%, respectively) were calculated from the linear part of the dialysis curves. For example, three selected formulations gave the following half-lives (Table 1): […]

Series [7] is described as follows: 96 h application of a TDS: bioavailability, blood levels of benzopyrone during application and after removal.
Series [8] relates to inflamed target tissues. To be noted: in vivo.
The test system of series [9] is rat skin. To be noted: cited from earlier work.
[10] abbreviates: human, blood, topical or ocular, 200 mg.
Where [11] appears, read: human, in vivo, topical or ocular.

Where two headings read alike, the source gives them in different places.

For orientation: bioavailability means dose-corrected exposure relative to a reference, in per cent. The low end stands for little systemic uptake, the high end for much systemic uptake. The Tmax is the time at which the peak concentration occurs.

For `CC1(C)C(C=C(Cl)Cl)C1C(=O)OC(C#N)c1cccc(Oc2ccccc2)c1` (centres unmarked) [cypermethrin], in series [1], the “penetration of rat skin more readily than human skin” value is given as 20 times.
For `COC1=CC(=O)C[C@@H](C)[C@]12Oc1c(Cl)c(OC)cc(OC)c1C2=O` [griseofulvin], the “penetration of rat skin more readily than human skin” value in series [1] is 14 times.
`O=C(O)[C@H]1O[C@@H](Oc2ccc3ccc(=O)oc3c2)[C@H](O)[C@@H](O)[C@@H]1O` [glucuronide (III)]: the pharmacological activity entry in series [2] (in vivo) was “pharmacologically inactive”.
As for `O=c1ccc2ccc(O)cc2o1` [7-hydroxybenzopyrone], the “glucuronidation step faster than preceding oxidation reaction” value in series [2] (liver, coupled metabolic conversion) is on record as “about 3.5 times”. Besides, the “decrease of blood levels of 7-hydroxybenzopyrone” value in series [3] (after removal of the TDS) is reported as “decreased rapidly”. Moreover, in [4] (TDS versus oral), the “blood levels of II, TDS lower than after oral dose” value is reported as 6-10 times. Further, the “maximum blood concentrations of II, TDS versus oral, based on the same absorbed dose” value in series [4] (TDS versus oral, same absorbed dose) was “approximately comparable”. Besides, the “blood levels of 7-hydroxybenzopyrone, oral compared with transdermal” value in [4] (oral versus transdermal) was “substantially higher”.
As to `O=c1ccc2ccccc2o1` [benzopyrone, 5,6-benzo-alpha-pyrone], in series [2] (oral application), the “first pass metabolism in the liver” value is “virtually quantitative” and the “unchanged benzopyrone entering the circulation from the liver” value is on record as “virtually no unchanged benzopyrone”. Moreover, the “dialyzable amount of benzopyrone with increasing layer thickness” value in series [5] (20% formulation, cellulose membrane 20 kD, 2.5 cm^2) is “increases with increasing layer thickness until the saturation limit of the control membrane is reached and then remains constant”. Besides, the “Amount of benzopyrone diffusing within 8 h” value in series [5] (layer thickness 0.1 mm, 20% formulation, cellulose membrane 20 kD, 2.5 cm^2) amounted to 8 mg. Also, in series [5] (layer thickness 0.2 mm, 20% formulation, cellulose membrane 20 kD, 2.5 cm^2), the “Amount of benzopyrone diffusing within 8 h” value was determined as 14 mg. Further, in [5] (layer thickness 0.4 mm, 20% formulation, cellulose membrane 20 kD, 2.5 cm^2), the “Amount of benzopyrone diffusing within 8 h” value stood at 14 mg. In series [5] (on increasing the viscosity of the formulation), the “rate of dialysis of the benzopyrone” value was “considerably reduced”. Besides, the “factor of increase of the diffusion rate” value in [5] (pore volume increased from 20 kD to 100 kD, same formulation) amounted to 1.6. The “kinetics of active ingredient diffusion through the membrane” value in [6] is reported as “linear kinetics”. The concentration at 4 h in series [3] (human, blood, topical or ocular, 4 h after removal of the TDS (200 mg)) was determined as 4.96 ng/mL. The molecule also gave a concentration at 3 h in series [3] (human, blood, topical or ocular, single TDS 200 mg, application time 3 h) of 23.4 ng/mL. The molecule also came in with a concentration at 24 h in [3] (human, blood, topical or ocular, single TDS 200 mg, application time 24 h) of 27.3 ng/mL. In addition, in series [3] (single TDS 200 mg), the “time to steady state of blood benzopyrone level” value is given as 3 h. Moreover, in [7] (96 h application), the “active ingredient release over total application time” value is “linear”. The “release of benzopyrone over 96 h” value in series [7] (TDS worn 4 days) is recorded as “takes place in a constant manner”. Besides, in series [7] (setting [10]), the concentration at 3 h worked out at 2.4 ng/mL, the concentration at 6 h turned out to be 0.8 ng/mL, the concentration at 48 h was determined as 5.5 ng/mL and the concentration at 72 h came to 6.1 ng/mL. In series [7] (setting [10]), this molecule came in with a concentration at 82 h of 8.7 ng/mL and a concentration at 96 h of 6.6 ng/mL. The same molecule registered a bioavailability at 96 h in series [7] (setting [11]) of 70%. Also, the “blood levels of benzopyrone (I), transdermal higher than after oral administration” value in series [4] (TDS versus oral) came to 10 times. Moreover, the “maximum blood levels of (I), TDS higher than after oral, based on same dose absorbed per day” value in series [4] (human, in vivo, po) came out at 57 times. For the same molecule, the Tmax in series [4] (human, in vivo, po, t max of benzopyrone (I)) is 3 h. In addition, the bioavailability at 48 h in series [4] (setting [11]) is 35%. Further, the accumulation in tissue entry in [8] is given as “preferably accumulates in inflamed target tissues”. Besides, the “unabsorbed proportion of benzopyrone after 12 hours” value (“unabsorbed proportion” for short) in series [9] (1 g of 5% ointment over 30 cm^2, rat 1) is 1.95 percent by weight. The “unabsorbed proportion” value in series [9] (1 g of 5% ointment over 30 cm^2, rat 2) is 13.24 percent by weight. Further, the “unabsorbed proportion” value in series [9] (1 g of 5% ointment over 30 cm^2, rat 3) was 42.8 percent by weight.
